# PMC3091868, “A Novel Structural Framework for α1A/D-Adrenoceptor Selective Antagonists Identified Using Subtype Selective Pharmacophores” (PLoS ONE, 2011)
# Read-outs that look alike come from different tables or passages of the source.
# Experiments:
# [1] = target: T1, α1A-AR (Rattus norvegicus, UniProt P43140); assay: [3H]Prazosin competition/saturation binding on COS-1 membranes expressing α1A-AR; parameters: species or system rodent; conditions: for Ki: [3H]Prazosin 200 pM, COS-1 membranes
# T1 construct: expressed in transfected cells; host or cells: COS-1
# T1 sequence (P43140 1-466): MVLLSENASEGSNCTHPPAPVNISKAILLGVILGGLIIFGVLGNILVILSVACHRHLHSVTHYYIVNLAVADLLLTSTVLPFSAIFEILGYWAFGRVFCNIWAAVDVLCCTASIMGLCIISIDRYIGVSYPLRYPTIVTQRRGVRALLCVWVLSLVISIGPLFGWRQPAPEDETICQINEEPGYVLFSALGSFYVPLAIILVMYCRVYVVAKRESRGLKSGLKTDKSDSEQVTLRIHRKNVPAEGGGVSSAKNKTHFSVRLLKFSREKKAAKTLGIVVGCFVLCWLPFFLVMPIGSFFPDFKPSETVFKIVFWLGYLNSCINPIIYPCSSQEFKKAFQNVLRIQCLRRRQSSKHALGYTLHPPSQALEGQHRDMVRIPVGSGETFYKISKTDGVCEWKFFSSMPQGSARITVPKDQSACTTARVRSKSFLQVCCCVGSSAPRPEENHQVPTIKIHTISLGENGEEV
# Procedure: (§1) COS-1 cells (American Type Culture Collection, Manassas, VA) were cultured in Dulbecco's modified Eagle's medium (DMEM) supplemented with 10% (v/v) heat inactivated fetal bovine serum (FBS), 100 µg ml^−1 penicillin and 100 µg ml^−1 streptomycin. Cells were maintained and passaged upon reaching confluence by standard cell culture techniques. pMT4 plasmids containing rodent α1-AR (a kind gift from Prof R Graham, Victor Chang Cardiac Research Institute, Australia) were used to transfect cells. Transient expression in COS-1 cells was accomplished using two techniques; the diethylaminoethane-dextran (DEAE-dextran) and Lipofectamine 2000 (Invitrogen, Carlsbad, CA, USA) methods. Briefly, the DEAE-dextran method involved washing of cells with phosphate buffered saline (PBS), followed by the addition of the DNA mixture (12–25 µg/4×10^6 cells) in DEAE-dextran (10 mg ml^−1) to cells at 60–80% confluency. Following a 3 h incubation, a PBS wash with 10% DMSO was used to shock the cells. Cells were harvested 72 h post transfection. For the Lipofectamine 2000 method, cells were incubated for 12 h with Opti-MEM (GIBCO BRL, Gaithersburg, MD, USA) containing Lipofectamine 2000.
# (§2) Membranes were prepared as described previously. Briefly, COS-1 cells were transiently transfected using the DEAE-dextran method. […] Protein concentration was determined using Bradford reagent (Sigma, St Louis, MO, USA).
# (§3) For all binding experiments, the reaction mixture was incubated for 1 h at room temperature, stopped by the addition of 4°C PBS and filtered with a Brandel cell harvester (Gaithersburg, MD, USA) on GF/C filters. Nonspecific binding was defined as binding in the presence of 100 µM phentolamine hydrochloride.
# (§4) Nonlinear regression analysis of saturation and competition binding assay data was performed using the […] curve fitting program GraphPad Prism (San Diego, CA, USA). […] The competitive binding data for each ligand was tested for both one and two -site binding.
# [2] = target: T2, α1B-AR (Mesocricetus auratus, UniProt P18841); assay: [3H]Prazosin competition/saturation binding on COS-1 membranes expressing α1B-AR; parameters: species or system rodent; conditions: [3H]Prazosin 200 pM, COS-1 membranes
# T2 construct: expressed in transfected cells; host or cells: COS-1
# T2 sequence (P18841 1-515): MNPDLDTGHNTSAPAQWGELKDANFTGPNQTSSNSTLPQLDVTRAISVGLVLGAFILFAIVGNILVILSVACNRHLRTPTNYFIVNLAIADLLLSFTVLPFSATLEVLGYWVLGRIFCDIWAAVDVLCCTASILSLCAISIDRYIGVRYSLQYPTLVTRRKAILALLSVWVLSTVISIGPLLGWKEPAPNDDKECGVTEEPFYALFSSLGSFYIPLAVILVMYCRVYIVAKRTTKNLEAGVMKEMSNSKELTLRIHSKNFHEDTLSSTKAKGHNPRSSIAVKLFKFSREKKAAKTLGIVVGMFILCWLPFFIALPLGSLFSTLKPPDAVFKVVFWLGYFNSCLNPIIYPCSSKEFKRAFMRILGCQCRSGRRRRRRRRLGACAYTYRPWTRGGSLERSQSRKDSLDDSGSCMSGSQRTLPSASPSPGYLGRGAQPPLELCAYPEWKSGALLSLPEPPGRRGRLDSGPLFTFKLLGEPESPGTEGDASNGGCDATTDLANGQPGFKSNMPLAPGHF
# Procedure: as §1, §2, §3, §4
# [3] = target: T3, α1D-AR (Rattus norvegicus, UniProt P23944); assay: [3H]Prazosin competition/saturation binding on COS-1 membranes expressing α1D-AR; parameters: species or system rodent; conditions: [3H]Prazosin 200 pM
# T3 construct: expressed in transfected cells; host or cells: COS-1
# T3 sequence (P23944 1-561): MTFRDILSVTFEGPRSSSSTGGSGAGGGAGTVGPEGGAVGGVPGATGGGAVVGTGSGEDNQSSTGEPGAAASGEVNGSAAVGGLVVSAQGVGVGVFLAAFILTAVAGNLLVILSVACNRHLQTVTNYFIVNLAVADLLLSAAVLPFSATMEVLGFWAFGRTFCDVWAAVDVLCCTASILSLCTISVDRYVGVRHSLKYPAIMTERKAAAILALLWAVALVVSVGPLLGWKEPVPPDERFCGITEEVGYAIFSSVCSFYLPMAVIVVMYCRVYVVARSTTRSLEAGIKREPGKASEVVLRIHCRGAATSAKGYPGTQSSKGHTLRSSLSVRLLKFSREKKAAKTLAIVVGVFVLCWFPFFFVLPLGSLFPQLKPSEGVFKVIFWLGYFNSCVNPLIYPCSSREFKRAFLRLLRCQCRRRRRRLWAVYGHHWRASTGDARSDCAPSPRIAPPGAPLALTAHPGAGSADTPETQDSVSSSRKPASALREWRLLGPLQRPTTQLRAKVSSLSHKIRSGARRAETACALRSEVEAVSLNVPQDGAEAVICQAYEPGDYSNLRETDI
# Procedure: as §1, §2, §3, §4
# [4] = target: T1, α1A-AR; assay: Phosphatidylinositol hydrolysis (IP accumulation) assay in COS-1 cells expressing α1A-AR; assay type: cell-based, rodent; conditions: for IC50: 20 min compound, then 10 µM (-)-norepinephrine 30 min, COS-1 cells, read-out: pIC50, inhibition of norepinephrine induced IP accumulation at α1A-AR (converted)
# Procedure: as §1
# Accumulation of [^3H] inositol phosphates (IPs) was determined as described previously. Briefly, COS-1 cells were transiently transfected with α1A, α1B and α1D - AR pMT4 plasmids using the Lipofectamine method. 24 h after transfection, cells were seeded into 96 well plates and labelled overnight with 20 µCi ml^−1 [^3H]myo-inositol in inositol free DMEM supplemented with 5% charcoal stripped FBS. Cells were washed twice with inositol free DMEM, and incubated in inositol free DMEM for 2 h at 37°C. Cells were treated for 20 minutes with LiCl (20 mM) and propanolol (20 µM) in the presence or absence of tested compounds. Agonists were then added for 30 min, and the reaction was terminated by addition of 0.4 M formic acid. Cells were lysed by freeze thawing twice and were applied to AG 1-X8 columns. Total IPs were eluted with 1 M ammonium formate in 0.1 M formic acid. 200 µL of eluted sample was diluted with 1 mL reverse osmosis water and 5 mL Ultimaflow scintillation fluid (Perkin Elmer), and were counted in a liquid scintillation counter.
# Compounds were administered alone (100 µM) or prior to the addition of 10 µM […], to screen for agonist or antagonist activity respectively.
# Figure 2 Inhibition of norepinephrine induced inositol phosphate (IP) accumulation at α1A- AR. α1A-AR transfected cells labelled overnight with [^3H]- myo-inositol were treated with indicated concentrations (300 µM – 0.1 µM) of test compounds, 1 (▪), 2 (▵), and 11 (○), for 20 min. This was followed by a 30 min. stimulation with 10 µM (-)- norepinephrine, following which total IP accumulation was determined. Data was normalized against basal COS-1 cell IP production and expressed as a percentage of the (-)-norepinephrine-stimulated maximal IP response of that receptor subtype. The data represented the mean ± SE of a single experiment (n = 4–5), performed in triplicate.
# Figure 3 Inositol phosphate (IP) accumulation in the presence of norepinephrine and compound 8 at the α1A- adrenoceptor (AR). α1A-AR transfected cells were labelled with [^3H]- myo-inositol. Following a 20 min. treatment with lithium chloride (20 mM) and propanolol (20 µM) the cells were stimulated with the indicated concentrations (300 µM − 0.1 µM) of (-) norepinephrine (•) or compound 8 (▪) for 30 min. Total inositol phosphate (IP) accumulation was determined as described under “Materials and Methods”. Data was normalized against basal COS-1 cell IP production and expressed as a percentage of the (-)-norepinephrine-stimulated maximal IP response. The data represents the mean ± SE of three separate experiments (n = 3), performed in duplicate or triplicate.
# [5] = target: T3, α1D-AR; assay: Phosphatidylinositol hydrolysis (IP accumulation) assay in COS-1 cells expressing α1D-AR; assay type: cell-based, rodent; conditions: 100 µM compound alone, agonist screen, n = 3
# Procedure: as §1, with “For the Lipofectamine 2000 method, cells were incubated for 12 h with Opti-MEM (GIBCO BRL, Gaithersburg, MD, USA) containing Lipofectamine 2000.” left out
# Accumulation of [^3H] inositol phosphates (IPs) was determined as described previously. […] 200 µL of eluted sample was diluted with 1 mL reverse osmosis water and 5 mL Ultimaflow scintillation fluid (Perkin Elmer), and were counted in a liquid scintillation counter. […]
# [6] = target: all α1-AR subtypes; parameters: method as in PMID 9249248; conditions: cited from earlier work
# [7] = antilog of mean pKi, Cheng-Prusoff, read-out: Ki α1A-AR
# [8] = pKi = -Log Ki, read-out: pKi α1A-AR (converted)
# [9] = antilog of mean pKi, Cheng-Prusoff, read-out: Ki α1B-AR
# [10] = pKi = -Log Ki, read-out: pKi α1B-AR (converted)
# [11] = antilog of mean pKi, Cheng-Prusoff, read-out: Ki α1D-AR
# [12] = pKi = -Log Ki, read-out: pKi α1D-AR (converted)
SMILES,"Ki [1, 7] [µM]","Ki [1, 8] [µM]","Ki [2, 9] [µM]","Ki [2, 10] [µM]","Ki [3, 11] [µM]","Ki [3, 12] [µM]",selectivity for α1A-AR over α1B-AR ([1]; from binding affinities) [fold],IC50 [4] [µM],"IP production, compound alone, compared to control, α1D-AR [5]","IP production, compound alone, compared to control, α1A-AR ([4]; 100 µM compound alone, agonist screen, n = 3)","Maximal IP production, % of the (-) norepinephrine control ([4]; COS-1 cells expressing α1A-AR)","EC50 ([4]; COS-1 cells expressing α1A-AR, 30 min, n = 3, read-out: pEC50, increase in intracellular IP at α1A-AR (converted)) [µM]",selectivity for α1A-AR over α1D-AR ([1]; from binding affinities) [fold],Ki [6] [µM]
CN(C)c1ccc(CN2CCCN(Cc3ccc(N(C)C)cc3)C2c2cc(Cl)ccc2O)cc1 [Compound 9],24.5,23.4,> 100,> 100,36.1,24.5,,,,,,,,
COc1cc2c(cc1OC)C1CC(C)=C(c3ccccc3)CN1CC2 (stereo not shown) [Compound 11],2,1.78,11.8,11,1.6,1.51,7,13.2,,,,,,
CCCCC(O)CN1CCC(Cc2ccccc2)CC1 (stereo not shown) [Compound 6],5.22,4.9,17,13.5,5.9,5.5,,,,,,,,
CCCCCCCCN(CCCCCCCC)CC(O)c1ccccc1Cl (stereo not shown) [Compound 8],45.9,41.7,> 100,> 100,48.7,,,,distinct trend of increased IP production,distinct trend of increased IP production,approximately 30%,5.5,,
COc1cccc(C=CCN2CCN(c3cccc(C(F)(F)F)c3)CC2)c1 [Compound 2],0.49,,4.59,,18.8,10.5,10,17,,,,,38,
CCN(Cc1ccccc1)CC(O)c1cccc(Cl)c1 (stereo not shown) [Compound 3],15.1,12.6,24.4,9.55,8.35,7.76,,,,,,,,
COc1cc2nc(N3CCN(C(=O)c4ccco4)CC3)nc(N)c2cc1OC [prazosin],,,,,,,,,,,,,,~0.0001
